35 compounds from US20070066682A1, “Arylalkylamine vanadium (V) salts for the treatment and/or prevention of Diabetes mellitus” (priority 2005, published 2007) can be followed below.

In one test the target is T1, Human SSAO (Homo sapiens, UniProt Q16853).
T1 sequence (Q16853 1-763): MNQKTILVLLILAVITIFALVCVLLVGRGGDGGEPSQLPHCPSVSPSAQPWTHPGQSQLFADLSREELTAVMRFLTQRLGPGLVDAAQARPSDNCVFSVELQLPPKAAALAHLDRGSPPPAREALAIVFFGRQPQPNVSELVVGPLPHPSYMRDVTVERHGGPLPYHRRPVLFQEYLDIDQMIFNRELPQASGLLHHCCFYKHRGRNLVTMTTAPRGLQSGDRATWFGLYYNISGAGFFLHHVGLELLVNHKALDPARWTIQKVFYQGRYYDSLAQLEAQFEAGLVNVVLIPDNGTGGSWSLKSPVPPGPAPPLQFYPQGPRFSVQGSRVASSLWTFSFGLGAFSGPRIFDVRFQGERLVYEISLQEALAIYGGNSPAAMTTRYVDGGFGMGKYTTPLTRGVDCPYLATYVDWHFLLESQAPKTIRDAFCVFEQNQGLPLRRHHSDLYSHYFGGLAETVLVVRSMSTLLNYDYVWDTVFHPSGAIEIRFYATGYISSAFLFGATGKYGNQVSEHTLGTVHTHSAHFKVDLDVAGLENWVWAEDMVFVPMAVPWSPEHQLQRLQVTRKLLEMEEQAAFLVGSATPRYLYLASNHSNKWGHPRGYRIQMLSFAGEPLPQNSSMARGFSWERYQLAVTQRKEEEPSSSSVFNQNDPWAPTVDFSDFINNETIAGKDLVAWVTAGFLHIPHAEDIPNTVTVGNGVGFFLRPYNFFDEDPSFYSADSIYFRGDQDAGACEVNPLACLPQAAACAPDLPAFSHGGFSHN
The test is described as follows: SSAO activity, hydrogen peroxide production relative to benzylamine (human). It is filed as biochemical. Particulars: compound at 1 mM. On the procedure: (§1) The continuous spectrophotometric detection of SSAO-dependent H2O2 production based on a peroxidase-coupled reaction was performed as previously described by Abella et al. (2004, Diabetologia 47: 429-438) and following the procedure described by Holt et al., (1997, Anal. Biochem. 244: 384-392).
(§2) Compounds listed in Table 1 were prepared according to the methods described above, purity was determined by HPLC at 220 nm, molecular weight calculated by mass spectrometer. Human and mouse SSAO activity was determined by detecting the production of hydrogene peroxide in the presence of the different compounds present at 1 mM for human and 100 μM for mice activity measurements. Compounds in Table 2″ were similarly assayed. Values are means of percentages relative to benzylamine-related hydrogen production. Kinetic Parameters for select compounds are set forth in Table 3 (Mouse SSAO) and Table 4 (Human SSAO).

For a further test, the target named is T2, mouse SSAO (Mus musculus, UniProt O70423).
T2 sequence (O70423 1-765): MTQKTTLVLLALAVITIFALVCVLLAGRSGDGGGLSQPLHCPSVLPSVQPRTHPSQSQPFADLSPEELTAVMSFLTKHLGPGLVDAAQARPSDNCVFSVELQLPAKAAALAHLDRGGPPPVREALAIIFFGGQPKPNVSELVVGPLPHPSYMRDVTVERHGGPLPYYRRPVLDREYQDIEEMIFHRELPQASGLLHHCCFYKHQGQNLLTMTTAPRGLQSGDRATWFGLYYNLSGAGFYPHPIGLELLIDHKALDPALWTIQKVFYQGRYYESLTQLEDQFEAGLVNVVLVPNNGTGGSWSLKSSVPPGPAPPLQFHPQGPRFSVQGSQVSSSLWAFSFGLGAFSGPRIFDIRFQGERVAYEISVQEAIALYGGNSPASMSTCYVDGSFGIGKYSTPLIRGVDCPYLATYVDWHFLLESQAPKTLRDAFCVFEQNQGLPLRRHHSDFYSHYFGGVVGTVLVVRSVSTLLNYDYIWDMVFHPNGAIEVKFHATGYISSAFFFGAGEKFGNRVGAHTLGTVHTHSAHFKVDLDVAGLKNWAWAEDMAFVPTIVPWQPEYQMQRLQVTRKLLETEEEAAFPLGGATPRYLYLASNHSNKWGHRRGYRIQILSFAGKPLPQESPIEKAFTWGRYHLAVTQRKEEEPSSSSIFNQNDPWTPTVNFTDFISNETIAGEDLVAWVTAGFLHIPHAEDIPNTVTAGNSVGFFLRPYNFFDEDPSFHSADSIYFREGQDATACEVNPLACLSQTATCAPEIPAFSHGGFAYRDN
The test is described as follows: SSAO activity, hydrogen peroxide production relative to benzylamine (mouse). Type of test: biochemical. Particulars: compound at 100 μM. On the procedure: as §1, §2

Regarding `COc1cccc2[nH]cc(CN)c12` [Entry 45, (4-methoxy-1H-indol-3-yl)methanamine], on Human SSAO, the “SSAO activity (% relative to benzylamine) Human” value stood at 0.00%. Further, the “SSAO activity (% relative to benzylamine) Mouse” value at mouse SSAO was 5.54%.

For `COc1cccc(O)c1CN` [Entry 19, 2-(aminomethyl)-3-methoxyphenol], on Human SSAO, the “SSAO activity (% relative to benzylamine) Human” value is 0.00%. Moreover, at mouse SSAO, the “SSAO activity (% relative to benzylamine) Mouse” value was found to be 0.00%.

As for `NCc1ccccc1F` [Entry 23, (2-fluorophenyl)methanamine], the “SSAO activity (% relative to benzylamine) Human” value at Human SSAO is on record as 1.3%. Besides, the “SSAO activity (% relative to benzylamine) Mouse” value on mouse SSAO worked out at 44.0%.

Regarding `NCCc1ccccc1` [Entry 41, 2-phenylethanamine], the “SSAO activity (% relative to benzylamine) Human” value on Human SSAO is reported as 8.20%. Moreover, the “SSAO activity (% relative to benzylamine) Mouse” value at mouse SSAO came to 6.80%.

Consider `CC(C)c1ccc(CN)cc1` [Entry 7, (4-isopropylphenyl)methanamine], for which the “SSAO activity (% relative to benzylamine) Human” value at Human SSAO is listed as 0.00%. At mouse SSAO, the “SSAO activity (% relative to benzylamine) Mouse” value was found to be 0.00%.

With `NCc1ccc(C(=O)O)cc1` [Entry 27, 4-(aminomethyl)benzoic acid], the “SSAO activity (% relative to benzylamine) Human” value at Human SSAO is 0.00%. The “SSAO activity (% relative to benzylamine) Mouse” value at mouse SSAO worked out at 4.06%.

As for `COc1cc(F)cc(CN)c1` [Entry 17, (3-fluoro-5-methoxyphenyl)methanamine], the “SSAO activity (% relative to benzylamine) Human” value at Human SSAO was 2.53%. For the same compound, the “SSAO activity (% relative to benzylamine) Mouse” value on mouse SSAO was 4.86%.

As to `NCCc1ccc(O)c(O)c1` [Entry 47, 4-(2-aminoethyl)benzene-1,2-diol], the “SSAO activity (% relative to benzylamine) Human” value at Human SSAO was found to be 0.00%. Further, the “SSAO activity (% relative to benzylamine) Mouse” value on mouse SSAO was 0.00%.

Regarding `NCc1ccc(OC(F)(F)F)cc1` [Entry 9, (4-(trifluoromethoxy)phenyl)methanamine], the “SSAO activity (% relative to benzylamine) Human” value at Human SSAO amounted to 0.00%. Besides, on mouse SSAO, the “SSAO activity (% relative to benzylamine) Mouse” value was determined as 66.20%.

Regarding `NCc1c(O)ccc2ccccc12` [Entry 29, 1-(aminomethyl)naphthalen-2-ol], on Human SSAO, the “SSAO activity (% relative to benzylamine) Human” value is recorded as 0.00%. Also, the “SSAO activity (% relative to benzylamine) Mouse” value on mouse SSAO worked out at 0.00%.

Regarding `NCc1ccc(C(F)(F)F)cc1` [Entry 8, (4-(trifluoromethyl)phenyl)methanamine], the “SSAO activity (% relative to benzylamine) Human” value on Human SSAO was 0.50%. The “SSAO activity (% relative to benzylamine) Mouse” value at mouse SSAO is listed as 83.00%.

In the case of `NCCc1ccc(F)cc1` [Entry 46, 2-(4-fluorophenyl)ethanamine], the “SSAO activity (% relative to benzylamine) Human” value on Human SSAO stood at 16.30%. Also, the “SSAO activity (% relative to benzylamine) Mouse” value on mouse SSAO was determined as 59.80%.

Turning to `NCc1ccc(OCc2ccccc2)cc1` [Entry 20, (4-(benzyloxy)phenyl)methanamine], the “SSAO activity (% relative to benzylamine) Human” value on Human SSAO stood at 0.0%. Also, the “SSAO activity (% relative to benzylamine) Mouse” value on mouse SSAO was 0.0%.

Consider `COc1cc(CN)cc(OC)c1` [Entry 24, (3,5-dimethoxyphenyl)methanamine], for which the “SSAO activity (% relative to benzylamine) Human” value at Human SSAO stood at 0.00%. For the same compound, the “SSAO activity (% relative to benzylamine) Mouse” value on mouse SSAO is 0.75%.

For the compound `NCCCCc1ccccc1` [Entry 44, 4-phenylbutan-1-amine], the “SSAO activity (% relative to benzylamine) Human” value on Human SSAO is 147.63%. The “SSAO activity (% relative to benzylamine) Mouse” value on mouse SSAO is listed as 61.18%.

Turning to `COc1ccc(CCN)cc1OC` [Entry 48, 2-(3,4-dimethoxyphenyl)ethanamine], on Human SSAO, the “SSAO activity (% relative to benzylamine) Human” value was 0.00%. Moreover, on mouse SSAO, the “SSAO activity (% relative to benzylamine) Mouse” value came to 3.80%.

Regarding `CC(C)(C)c1ccc(CN)cc1` [Entry 6, (4-tert-butylphenyl)methanamine], at Human SSAO, the “SSAO activity (% relative to benzylamine) Human” value was determined as 0.00%. Also, the “SSAO activity (% relative to benzylamine) Mouse” value at mouse SSAO is listed as 1.00%.

Consider `NCc1ccc(-c2ccccc2)cc1` [Entry 15, biphenyl-4-yl-methanamine], for which, on Human SSAO, the “SSAO activity (% relative to benzylamine) Human” value is reported as 0.00%. The “SSAO activity (% relative to benzylamine) Mouse” value at mouse SSAO stood at 3.77%.

In the case of `NCc1cccc(CN)c1` [Entry 26, 1,3-phenylene dimethanamine], the “SSAO activity (% relative to benzylamine) Human” value on Human SSAO was found to be 0.00%. The “SSAO activity (% relative to benzylamine) Mouse” value at mouse SSAO was 0.00%.

With `CCc1ccc(CN)cc1` [Entry 5], the “SSAO activity (% relative to benzylamine) Human” value at Human SSAO is reported as 0.00%. Moreover, at mouse SSAO, the “SSAO activity (% relative to benzylamine) Mouse” value is given as 17.30%.

For the compound `CCCCc1ccc(CN)cc1` [Entry 11, (4-butylphenyl)methanamine], the “SSAO activity (% relative to benzylamine) Human” value on Human SSAO is on record as 0.00%. Further, on mouse SSAO, the “SSAO activity (% relative to benzylamine) Mouse” value was 27.00%.

For the compound `COc1ccc(CN)c(OC)c1` [Entry 10, (2,4-dimethoxyphenyl)methanamine], the “SSAO activity (% relative to benzylamine) Human” value at Human SSAO came to 0.00%. The “SSAO activity (% relative to benzylamine) Mouse” value on mouse SSAO was determined as 0.00%.

Consider `CC(N)c1cccc2ccccc12` (stereo not shown) [Entry 30, 1-(naphthalen-1-yl)ethanamine], for which the “SSAO activity (% relative to benzylamine) Human” value on Human SSAO is listed as 11.00%. The “SSAO activity (% relative to benzylamine) Mouse” value on mouse SSAO is 0.00%.

For the compound `NCCOc1ccccc1` [Entry 43, 2-phenoxyethanamine], the “SSAO activity (% relative to benzylamine) Human” value at Human SSAO stood at 17.93%. For the same compound, at mouse SSAO, the “SSAO activity (% relative to benzylamine) Mouse” value came out at 14.60%.

Consider `NCc1ccc(F)cc1` [Entry 3, (4-fluorophenyl)methanamine], for which the “SSAO activity (% relative to benzylamine) Human” value on Human SSAO turned out to be 31.70%. Moreover, the “SSAO activity (% relative to benzylamine) Mouse” value at mouse SSAO came out at 77.20%.

Consider `NCc1cccc2c1OCCO2` [Entry 21, (2,3-dihydrobenzo-[b][1,4]dioxin-5-yl)methanamine], for which, at Human SSAO, the “SSAO activity (% relative to benzylamine) Human” value is reported as 0.00%. Further, the “SSAO activity (% relative to benzylamine) Mouse” value at mouse SSAO was 12.36%.

Turning to `NCc1cccc([N+](=O)[O-])c1O` [Entry 14, 2-(aminomethyl)-6-nitrophenol], the “SSAO activity (% relative to benzylamine) Human” value at Human SSAO amounted to 0.11%. Further, on mouse SSAO, the “SSAO activity (% relative to benzylamine) Mouse” value is 5.47%.

For the compound `NCCCc1ccccc1` [Entry 42, 3-phenylpropan-1-amine], the “SSAO activity (% relative to benzylamine) Human” value at Human SSAO came out at 60.30%. Further, the “SSAO activity (% relative to benzylamine) Mouse” value at mouse SSAO worked out at 44.80%.

On to `NCc1ccc(CN)cc1` [Entry 25, 1,4-phenylene dimethanamine], for which, on Human SSAO, the “SSAO activity (% relative to benzylamine) Human” value is 0.00%. For the same compound, on mouse SSAO, the “SSAO activity (% relative to benzylamine) Mouse” value came out at 0.00%.

On to `COc1ccc(CN)c2ccccc12` [Entry 28, (4-methoxynaphthalen-1-yl)methanamine], for which, on Human SSAO, the “SSAO activity (% relative to benzylamine) Human” value is given as 0.70%. Also, the “SSAO activity (% relative to benzylamine) Mouse” value on mouse SSAO was 0.00%.

Regarding `NCc1ccc(O)c(Br)c1` [Entry 13, 4-(aminomethyl)-2-bromophenol], the “SSAO activity (% relative to benzylamine) Human” value on Human SSAO is reported as 0.00%. The “SSAO activity (% relative to benzylamine) Mouse” value at mouse SSAO worked out at 0.00%.

In the case of `NCc1ccccc1` [Entry 1, Benzylamine, reference compound], the “SSAO activity (% relative to benzylamine) Human” value on Human SSAO is on record as 100%. Besides, the “SSAO activity (% relative to benzylamine) Mouse” value on mouse SSAO was found to be 100%.

For the compound `COc1ccc(CN)cc1` [Entry 22, (4-methoxyphenyl)methanamine], the “SSAO activity (% relative to benzylamine) Human” value on Human SSAO is reported as 0.00%. In addition, the “SSAO activity (% relative to benzylamine) Mouse” value on mouse SSAO is given as 4.56%.

Take `Cc1ccc(CN)cc1` [Entry 4, p-tolylmethanamine]: the “SSAO activity (% relative to benzylamine) Human” value at Human SSAO stood at 0.00%. Further, the “SSAO activity (% relative to benzylamine) Mouse” value on mouse SSAO is 0.00%.

For the compound `Cc1ccc(CN)cc1F` [Entry 16, (3-fluoro-4-methylphenyl)methanamine], on Human SSAO, the “SSAO activity (% relative to benzylamine) Human” value worked out at 7.07%. The “SSAO activity (% relative to benzylamine) Mouse” value at mouse SSAO amounted to 33.49%.
